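96-well plates; 48 h exposure; 5 concentrations. Endpoints by linear interpolation between flanking doses. Not reached: highest tested concentration assigned. GI50 is the concentration that inhibits growth by half. TGI marks complete inhibition of growth.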
How the values were obtained:
Test in all cases: NCI-60 cell line screen, 48 h
[1] = system: HL-60(TB) leukemia
[2] = system: TK-10 renal
[3] = system: EKVX NSCLC
[4] = system: CAKI-1 renal
[5] = system: DU-145 prostate
[6] = system: MALME-3M melanoma
[7] = system: SK-OV-3 ovarian
[8] = system: UACC-62 melanoma
[9] = system: SNB-75 CNS
[10] = system: NCI-H226 lung

Compound | TGI [1] [µM] | TGI [2] [µM] | TGI [3] [µM] | TGI [4] [µM] | TGI [5] [µM] | TGI [6] [µM] | TGI [7] [µM] | TGI [8] [µM] | TGI [9] [µM] | TGI [10] [µM] | GI50 [2] [µM] | GI50 [9] [µM] | GI50 [3] [µM] | GI50 [4] [µM] | GI50 [5] [µM] | GI50 [6] [µM] | GI50 [10] [µM] | GI50 [7] [µM] | GI50 [8] [µM]
O=C1c2ccccc2C(=O)c2nn(N=P(CP(=Nn3nc4c(n3)C(=O)c3ccccc3C4=O)(c3ccccc3)c3ccccc3)(c3ccccc3)c3ccccc3)nc21 | > 100 | > 100 | > 100 | > 100 | > 100 | > 100 | > 100 | > 100 | – | – | – | – | – | – | – | – | – | – | –
NNC(=O)Cn1ccnn1 | > 100 | > 100 | > 100 | > 100 | > 100 | > 100 | – | – | > 100 | – | – | – | – | – | – | – | – | – | –
Cc1cn(CCOCCOC(=O)NC(CCCNC(N)=O)C(=O)O)c(=O)[nH]c1=O (stereo not given) | > 100 | > 100 | > 100 | > 100 | > 100 | – | > 100 | > 100 | > 100 | > 100 | – | – | – | – | – | – | – | – | –
N#Cc1c(N2CCN(c3ccc([N+](=O)[O-])cc3)CC2)[n+](=O)c2ccc(-c3ccc([N+](=O)[O-])cc3)cc2n1[O-] | – | > 100 | > 100 | > 100 | > 100 | > 100 | > 100 | > 100 | > 100 | > 100 | – | – | – | – | – | – | – | – | –
N#C/C(C(=O)Nc1ccccc1)=C(/N)N1CCCCC1 | – | – | > 100 | > 100 | > 100 | – | > 100 | > 100 | > 100 | > 100 | – | – | – | – | – | – | – | – | –
O=c1c(O)cccn1C1OC(CO)C(O)C1O (stereo not given) | – | > 100 | > 100 | > 100 | – | > 100 | > 100 | > 100 | > 100 | > 100 | – | – | – | – | – | – | – | – | –
Cc1ccc(/C=N\NC(=O)c2ccncc2)s1 | > 100 | > 100 | > 100 | > 100 | > 100 | > 100 | > 100 | > 100 | – | > 100 | – | – | – | – | – | – | – | – | –
COc1ccc(NC(=O)CC(=O)N2N=C(N(c3ccccc3)c3ccccc3)CC2c2ccccc2)cc1 (stereo not given) | > 100 | > 100 | > 100 | > 100 | > 100 | – | > 100 | > 100 | > 100 | > 100 | – | – | – | – | – | – | – | – | –
CC1(C)C=[N+]([O-])C(C)(C)N1O | > 10 | > 10 | > 10 | > 10 | > 10 | > 10 | – | – | – | > 10 | – | – | – | – | – | – | – | – | –
CC1=CC[C@](C)(O)[C@@]2(C)CC[C@H]3C(=C(C)C)C(=O)C[C@]3(C)C[C@H]12 | 16.4 | > 50 | > 50 | > 50 | > 50 | – | > 50 | 47.1 | > 50 | > 50 | – | – | – | – | – | – | – | – | –
COc1cccc(C23CCCC(C2)N(C)CC3OC(=O)c2ccccc2)c1OC (stereo not given) | 28.3 | – | 72.7 | > 100 | > 100 | 48.1 | 97.7 | 84.5 | – | – | – | – | – | – | – | – | – | – | –
N#C/C(=C1/c2cc([N+](=O)[O-])ccc2-c2c1cc([N+](=O)[O-])cc2[N+](=O)[O-])N1CCCCC1 | – | > 100 | > 100 | > 100 | > 100 | > 100 | > 100 | > 100 | 41.2 | > 100 | – | – | – | – | – | – | – | – | –
CC(=O)O[C@H]1CCC2[C@@H]3CCC4NC(=O)C(C#N)C[C@]4(C)C3CC[C@@]21C (stereo not given in full) | > 10 | > 10 | > 10 | > 10 | > 10 | > 10 | > 10 | > 10 | – | > 10 | – | – | – | – | – | – | – | – | –
COc1ccc(C2SCC(=O)N2NC(=O)C(C)Oc2ccc(Cl)cc2Cl)cc1 (stereo not given) | 34.8 | > 100 | > 100 | 47.3 | > 100 | – | > 100 | > 100 | 51.1 | 33.6 | – | – | – | – | – | – | – | – | –
COC(=O)[C@@]1(C)CCC[C@]2(C(=O)O)C3Cc4occc4[C@H](C)[C@@H]3CCC21 (stereo not given in full) | > 100 | > 100 | > 100 | – | > 100 | > 100 | > 100 | > 100 | – | > 100 | – | – | – | – | – | – | – | – | –
CCOC(=O)c1c(N)sc2c1C(C(=O)OCC)CCC2 (stereo not given) | > 100 | > 100 | > 100 | – | – | > 100 | – | > 100 | > 100 | > 100 | – | – | – | – | – | – | – | – | –
Cc1cc2nc(-c3c(N)ncc(C#N)c3-c3ccc(Cl)cc3)[nH]c2cc1C | – | 21.3 | 76.7 | > 100 | 27.1 | 78.8 | 27.9 | 53.2 | 32.4 | 46.3 | 4.67 | 12.9 | 14.4 | 12.1 | 5.68 | 14.5 | 15 | 11.9 | 11
Cn1c2ccc(C3=NCCN3)cc2c2cc(C3=NCCN3)ccc21 | – | > 100 | > 100 | > 100 | > 100 | 61 | > 100 | – | > 100 | > 100 | – | – | – | – | – | – | – | – | –
O=c1nc2ccc3sc4ccccc4c(=O)c3n2c(=O)[nH]1 | > 100 | > 100 | > 100 | > 100 | > 100 | > 100 | – | – | > 100 | > 100 | – | – | – | – | – | – | – | – | –
CC(C)(CN1CCCCC1)C(/C=C/c1ccccc1)=N\NC(=O)N/N=C(/C=C/c1ccccc1)C(C)(C)CN1CCCCC1 | 2.86 | 3.36 | 20.7 | 5.61 | – | 3.7 | 9.52 | 2.89 | 3.05 | 5.27 | – | – | – | – | – | – | – | – | –
O=C(NCCCCCCO)c1cccc2cc3ccccc3nc12 | 74.8 | 34.6 | 32.8 | 36.1 | 32 | – | 47.4 | 35.2 | 37.3 | 35.3 | – | – | – | – | – | – | – | – | –
C[C@]12CC[C@H]3[C@@H](CCC4=C(Br)C(=O)C=C[C@@]43O)[C@@H]1CCC2=O | 81.6 | 94.2 | > 100 | > 100 | 68.7 | > 100 | > 100 | > 100 | – | > 100 | – | – | – | – | – | – | – | – | –
COc1cc2oc(=O)cc(C)c2c(OC)c1OC(C)=O | – | > 100 | > 100 | – | > 100 | > 100 | > 100 | > 100 | > 100 | > 100 | – | – | – | – | – | – | – | – | –

Reference: PubChem BioAssay (NCI)
